Experimental data from ChEMBL document CHEMBL4371021, “BH3 mimetics derived from Bim-BH3 domain core region show PTP1B inhibitory activity” (Bioorg Med Chem Lett, 2019).
Activity calls are given as the source filed them. No cut-off for these calls is given here.

Key:
[1] = biological target: T1, Tyrosine-protein phosphatase non-receptor type 1 (Homo sapiens) (UniProt P18031); assay: Binding affinity to recombinant human N-terminal poly histidine-tagged PTP1B (Glu2 to Asn321 residues) expressed in Escherichia coli assessed as association rate constant by surface plasmon resonance analysis
T1 sequence (whole entry): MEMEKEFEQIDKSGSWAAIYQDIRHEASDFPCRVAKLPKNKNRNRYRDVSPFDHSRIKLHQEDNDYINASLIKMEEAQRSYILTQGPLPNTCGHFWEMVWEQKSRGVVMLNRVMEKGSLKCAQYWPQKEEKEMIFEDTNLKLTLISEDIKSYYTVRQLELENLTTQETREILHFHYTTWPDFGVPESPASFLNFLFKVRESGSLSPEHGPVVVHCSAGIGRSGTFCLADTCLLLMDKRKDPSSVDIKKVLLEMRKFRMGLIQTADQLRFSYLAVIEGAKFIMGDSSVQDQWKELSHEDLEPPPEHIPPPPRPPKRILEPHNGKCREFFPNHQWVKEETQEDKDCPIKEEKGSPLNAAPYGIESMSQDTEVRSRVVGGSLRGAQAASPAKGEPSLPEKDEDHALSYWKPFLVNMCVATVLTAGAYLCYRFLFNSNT

[2] = biological target: T1, Tyrosine-protein phosphatase non-receptor type 1 (Homo sapiens); assay: Binding affinity to recombinant human N-terminal poly histidine-tagged PTP1B (Glu2 to Asn321 residues) expressed in Escherichia coli assessed as dissociation rate constant by surface plasmon resonance analysis
[3] = biological target: T1, Tyrosine-protein phosphatase non-receptor type 1 (Homo sapiens); assay: (§1) Inhibition of recombinant human N-terminal poly histidine-tagged PTP1B (Glu2 to Asn321 residues) expressed in Escherichia coli at 40 umol/L using pNPP as substrate measured for 4 mins relative to control
[4] = biological target: T2, Tyrosine-protein phosphatase non-receptor type 1 (Homo sapiens, UniProt P18031); assay: Binding affinity to recombinant human N-terminal poly histidine-tagged PTP1B (Glu2 to Asn321 residues) expressed in Escherichia coli by surface plasmon resonance analysis
T2 sequence (P18031 whole entry): T1 sequence (whole entry)

[5] = tested on: HepG2; assay: Induction of insulin-stimulated 2-NBDG uptake in palmitic acid-induced insulin resistant human HepG2 cells at 1 umol/L preincubated for 24 hrs followed by insulin stimulation and measured after 30 mins by fluorescence assay; type: functional, cell-based
[6] = biological target: Tyrosine-protein phosphatase non-receptor type 1 (Homo sapiens) (UniProt P18031); assay: as §1; remark: listed apart in the source

## Ac-IWIAQELRRIGDEFNA-NH2
[1]
  Ka: 2.37 ×10⁴ /Ms
[2]
  Kdiss: 6.38 ×10⁻⁴ /s
[3]
  inhibition: 2.32%
[4]
  Kd: 26.9 nM

## CN(CCOc1ccc(CC2SC(=O)NC2=O)cc1)c1ccccn1 (configuration not stated)
[5]
  Activity: Active

## SODIUM ORTHOVANAD
[6]
  inhibition: 75.4%

## Ac-IAQELRRIGDEF-NH2
[3]
  inhibition: 2.1%
